Measurements from patent US20170320939A1, “COLL2-1 PEPTIDE AND ITS NITRATED FORM AS THERAPEUTIC TARGETS FOR OSTEOARTHRITIS TREATMENT” (Université de Liège, priority 2014, published 2017).
Square brackets hold non-standard residues; d marks the D form. Ends that are not written are not given here. Tyr(3-NO2) = N[C@@H](Cc1ccc(O)c([N+](=O)[O-])c1)C(=O)O

Tests used:
NF-κB = NF-κB activation, Western blotting of phospho-p65 and phospho-IκBα; assay type: cell-based; details: oxidative stress inhibitors: apocynin 0.2 mM and diphenyleneiodonium 6.35 10^−2 mM
Protocol: Western blotting. Cells were collected at 4° C. and lysed on ice in 50 μl of buffer (25 mM Hepes, 150 mM NaCl, 0.5% Triton X-100, 10% glycerol, and 1 mM dithiothreitol) containing protease and phosphatase inhibitors. After incubation at 4° C. for 30 minutes, lysates were then centrifugated at 14,000 g for 30 minutes at 4° C. to remove insoluble debris. Protein concentrations were determined using BCA assay. Total protein extracts (10 μg) were fractioned by electrophoresis on a polyacrylamide gel (10%) and transferred onto a PVDF membrane. Membrane were blocked for 1 h in TBS-Tween containing 2% bovine serum albumin (phosphor-NF-κB p65 and phospho-IκBα). Membranes were then incubated overnight at 4° C. with primary antibodies. Anti-rabbit phospho-NF-κB p65 (1:1000 dilution), anti-rabbit phospho-IκBα (1:1000 dilution) were used. Horse-radish peroxidase (HRP)-linked anti-rabbit IgG antibody (1:2000 dilution) was used as secondary antibody.

[1] = tested on: OA synovial fibroblast cells; assay: NO production in OA synovial fibroblast cells; assay type: cell-based, human; details: Coll2-1 (0.45 and 4.5 nmol) or Coll2-1NO2 (4 and 40 pmol), 24 hours
Protocol: (§1) 1.1 Patients. Synovial tissue samples were obtained from 10 patients (8 women, 2 man; mean age 70 +/−6 years) with osteoarthritis (OA) of the knee at the time of total knee joint replacement surgery. All the subjects provided their informed consent.
(§2) 1.2 Isolation and culture of synovial cells. Synovium biopsies were digested is with collagenase from Clostridium histolyticum, Type IA (1 mg/ml) (Sigma-Aldrich, Saint-Louis, USA) and 0.25% trypsin (Sigma Aldrich, Saint Louis, USA) with 0.68 mM EDTA in Tris buffer 0.1M, pH 7.4 in complete medium (CM) (DMEM (Dulbecco's Modified Eagle's Medium) Low Glucose supplemented with 10 mM HEPES, 100 U/ml penicillin, 100 μg/ml streptomycin, 2 mM glutamine and 10% fetal calf serum (Lonza, Verviers, Belgium)) for 1 hour at 37° C. The cells suspensions were passed through a 70-μm filter to remove any undigested tissue. The filtered cells suspensions were then collected by centrifugation at 800 g and were cultured in culture flasks. After 24 hours, medium was changed to eliminate non adherent cells. Synovial fibroblasts cells (SFC) were used after three passages. […]
1.7 NO production. Nitric oxide production was evaluated using a DAF2-DA fluorescent probe (Molecular Probes, Leiden, The Netherlands). […] The fluorescence intensity was measured every hour for 6 hours. […] The numbers of adherent cells were measured by cristal violet assay.

TSP1 = TSP1 mRNA expression by Real Time PCR in OA synovial fibroblast cells; assay type: cell-based, human; details: 24 hours
Protocol: (§3) 1.3 Treatment of synovial fibroblast cells. Cells were seeded into a six-well plate at the density of 2×10^5 cells/well in 2 ml of CM. When the cells reached confluence, the CM was replaced with 1% serum medium for 24 h to keep the cells quiescent. Cells were incubated for 24 hours with or without peptides Coll2-1 (^108HRGYPGLDG^116; 0.45 and 4.5 nmol) or Coll2-1NO2 (^108HRGYPGLDG-NO2^116; 4 and 40 pmol) at a range of concentrations found in the blood of osteoarthritic patients.
(§4) 1.4 RNA extraction and Real Time Reverse Transcriptase-Polymerase Chain Reaction (RT PCR). Total RNA were extracted using the RNeasy Mini Kit (Qiagen, Netherlands) and were reverse transcribed with SuperScript III Reverse Transcriptase (Invitrogen, Belgium) according to the manufacturer's instructions. The cDNAs were quantified by real-time quantitative PCR using the Rotor Gene instrument (Qiagen, Venlo, Netherlands) and the SYBR Premix Ex Taq kit (Takara, Verviers, Belgium). The level of gene expression was determined by interpolation with a standard curve. To standardize mRNA levels, HPRT, a house keeping gene, was amplified as an internal control. The oligonucleotide primers sequences were as follow: HPRT forward, 5′-[…]-3′ (SEQ ID NO: 2); HPRT reverse, 5′-TGCCTGACCAAGGAAAGC-3′ (SEQ ID NO: 3); TSP-1 forward, 5′-CAGACCGCATTGGAGATAC-3′ (SEQ ID NO: 4); TSP-1 reverse, 5′-[…]-3′ (SEQ ID NO: 5); VEGF forward, 5′-TGCCTTGCTGCTCTAC-3′ (SEQ ID NO: 6); VEGF reverse, 5′-CACACAGGATGGCTTGAA-3′ (SEQ ID NO: 7); IL-6 forward, 5′-AAACAAATTCGGTACATCCTCG-3′ (SEQ ID NO: 8); IL-6 reverse, 5′-CCA GGC AAG TCT CCT CAT-3′ (SEQ ID NO: 9); IL-8 forward, 5′-GGAACCATCTCACTGTGTGTAA-3′ (SEQ ID NO: 10); IL-8 reverse, 5′-TGGAAAGGTTTGGAGTATGTCT-3′ (SEQ ID NO: 11).

[2] = tested on: OA synovial fibroblast cells; assay: Intracellular GSH assay in OA synovial fibroblast cells; assay type: cell-based, human; details: Coll2-1NO2 at 4 and 40 pmol, 24 hours
Protocol: as §1, §2
1.6 GSH assay. Levels of intracellular GSH were assessed by monoclorobimane staining. […] The fluorescence intensities were measured at […] using excitation and emission wavelengths of 380 and 485 nm, respectively. The intracellular GSH level was expressed as arbitrary units of fluorescence intensity.

IL-8 = IL-8 mRNA expression by Real Time PCR in OA synovial fibroblast cells; assay type: cell-based, human; details: increasing concentrations: Coll2-1 (0.45 and 4.5 nmol) or Coll2-1NO2 (4 and 40 pmol), 24 hours
Protocol: as §3, §4

IL-6 = IL-6 mRNA expression by Real Time PCR in OA synovial fibroblast cells; assay type: cell-based, human; details: increasing concentrations of peptide, 24 hours
Protocol: as §3
(§5) 1.4 RNA extraction and Real Time Reverse Transcriptase-Polymerase Chain Reaction (RT PCR). Total RNA were extracted using the RNeasy Mini Kit (Qiagen, Netherlands) and were reverse transcribed with SuperScript III Reverse Transcriptase (Invitrogen, Belgium) according to the manufacturer's instructions. The cDNAs were quantified by real-time quantitative PCR using the Rotor Gene instrument (Qiagen, Venlo, Netherlands) and the SYBR Premix Ex Taq kit (Takara, Verviers, Belgium). The level of gene expression was determined by interpolation with a standard curve. To standardize mRNA levels, HPRT, a house keeping gene, was amplified as an internal control. […]

VEGF = VEGF mRNA expression by Real Time PCR in OA synovial fibroblast cells; assay type: cell-based, human; details: increasing concentrations: Coll2-1 (0.45 and 4.5 nmol) or Coll2-1NO2 (4 and 40 pmol), 24 hours
Protocol: as §3, §5

[3] = tested on: OA synovial fibroblast cells; assay: Intracellular H2O2 production in OA synovial fibroblast cells; assay type: cell-based, human; details: 24 hours
Protocol: as §1
1.2 Isolation and culture of synovial cells. Synovium biopsies were digested is with collagenase from Clostridium histolyticum, Type IA (1 mg/ml) (Sigma-Aldrich, Saint-Louis, USA) and 0.25% trypsin (Sigma Aldrich, Saint Louis, USA) with 0.68 mM EDTA in Tris buffer 0.1M, pH 7.4 in complete medium (CM) (DMEM (Dulbecco's Modified Eagle's Medium) Low Glucose supplemented with 10 mM HEPES, 100 U/ml penicillin, 100 μg/ml streptomycin, 2 mM glutamine and 10% fetal calf serum (Lonza, Verviers, Belgium)) for 1 hour at 37° C. The cells suspensions were passed through a 70-μm filter to remove any undigested tissue. The filtered cells suspensions were then collected by centrifugation at 800 g and were cultured in culture flasks. After 24 hours, medium was changed to eliminate non adherent cells. Synovial fibroblasts cells (SFC) were used after three passages.
as §3
1.5 Intracellular H2O2 and O2^∘^− productions. Levels of intracellular superoxide anion (O2^∘^−) and hydrogen peroxide (H2O2) were assessed spectrofluorimetrically by oxidation of specific probes: dihydroethidium (Molecular Probes, Leiden, The Netherlands) and H2DCFH-DA (Molecular Probes, Leiden, The Netherlands) respectively. Synovial cells seeded on 96-well plates (8×10^3 cells per well) were washed once with phosphate-buffered saline and then incubated with 50 μL of phosphate-buffered saline containing either 250 μM dihydroethidium or 200 μM H2DCFH-DA. The fluorescence intensity was measured every hour for 6 hours. The levels of O2^∘^− or H2O2 are expressed in arbitrary unit/living cell. The numbers of adherent cells were measured by crystal violet assay.

TLR-4 = molecular target: T1, TLR-4 (Homo sapiens, UniProt O00206); assay: Inhibition of TLR-4 receptor: IL-8 expression by osteoarthritic synoviocytes; assay type: cell-based; details: 1 hour pre-treatment with CLI-095 (500 nM, 1 and 2.5 μM), then 24 hours Coll2-1 at 4.5 nmol
T1 construct: endogenous in cells; host or cells: osteoarthritic synoviocytes (synovial fibroblast cells)
Source text: as §4
Inhibition of TLR-4 receptor. […]

T1 sequence (O00206 24-839): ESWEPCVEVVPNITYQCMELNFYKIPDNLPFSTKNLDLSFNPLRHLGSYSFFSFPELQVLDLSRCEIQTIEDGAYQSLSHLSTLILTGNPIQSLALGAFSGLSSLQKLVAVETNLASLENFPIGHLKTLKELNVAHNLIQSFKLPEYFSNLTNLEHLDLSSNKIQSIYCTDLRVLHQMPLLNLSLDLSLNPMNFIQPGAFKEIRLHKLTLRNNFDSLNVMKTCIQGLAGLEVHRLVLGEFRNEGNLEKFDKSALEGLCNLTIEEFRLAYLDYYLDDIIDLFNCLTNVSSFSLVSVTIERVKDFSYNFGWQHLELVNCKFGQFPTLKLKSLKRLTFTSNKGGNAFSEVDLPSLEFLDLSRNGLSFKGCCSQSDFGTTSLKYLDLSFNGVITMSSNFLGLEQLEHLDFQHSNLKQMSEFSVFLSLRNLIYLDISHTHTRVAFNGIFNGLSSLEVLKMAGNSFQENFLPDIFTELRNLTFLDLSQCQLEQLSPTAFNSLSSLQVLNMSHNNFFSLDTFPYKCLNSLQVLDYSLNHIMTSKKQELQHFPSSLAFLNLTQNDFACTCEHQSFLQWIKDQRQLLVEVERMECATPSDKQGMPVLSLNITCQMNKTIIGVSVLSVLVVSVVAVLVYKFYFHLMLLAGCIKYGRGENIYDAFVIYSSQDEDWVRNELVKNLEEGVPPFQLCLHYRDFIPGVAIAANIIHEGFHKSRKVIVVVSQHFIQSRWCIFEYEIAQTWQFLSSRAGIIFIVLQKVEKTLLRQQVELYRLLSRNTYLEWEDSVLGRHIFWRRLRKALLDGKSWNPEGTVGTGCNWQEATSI

Molecule: c1ccc2c(c1)[I+]c1ccccc1-2 [diphenyleneiodonium]
- Coll2-1 induced IκBα degradation (NF-κB): decreased
- Coll2-1 induced phosphorylation and translocation of p65 (NF-κB): inhibited

Molecule: HRGY(NO2)PGLDG (HRG[Tyr(3-NO2)]PGLDG) [Coll2-1NO2, nitrated form of the Coll2-1 peptide]
- production of NO (nitric oxide) [1]: decreased significantly
- decrease of TSP1 expression, significance (TSP1; Coll2-1NO2 at 40 pmol): significant
- TSP1 expression (TSP1; increasing concentrations: Coll2-1 (0.45 and 4.5 nmol) or Coll2-1NO2 (4 and 40 pmol)): decreased
- intracellular level of GSH [2]: significant decrease
- IL-8 expression (IL-8): increased
- IL-6 expression (IL-6): increased
- VEGF expression (VEGF): tended to increase
- intracellular production of H2O2 ([3]; Coll2-1NO2 at 4 pmol): significantly increased
- intracellular production of H2O2 ([3]; Coll2-1NO2 at 40 pmol): significantly increased

Molecule: CCOC(=O)C1=CCCC[C@H]1S(=O)(=O)Nc1ccc(F)cc1Cl [CLI-095]
- IL-8 expression by osteoarthritic synoviocytes in the presence of Coll2-1 (TLR-4): decrease

Molecule: COc1cc(C(C)=O)ccc1O [apocynin]
- Coll2-1 induced IκBα degradation (NF-κB): decreased
- Coll2-1 induced phosphorylation and translocation of p65 (NF-κB): inhibited
